Patent US7022839B2, “Heterodimeric conjugates of neomycin-chloramphenicol having an enhanced specificity against RNA targets and its preparation” (Korea Institute of Science and Technology, priority 2001, dated 2006)

How the values were obtained:
[1] = target: RRE RNA; experiment: Fluorescence anisotropy competition binding (CRP displacement) to RRE RNA; set-up: species or system HIV; settings: competition with CRP probe, 20° C., pH 7.5; read-out: binding force (bond constant KD) against RRE RNA
Experimental: (§1) The RNA of the present invention was prepared with sense DNA of 16S rRNA (sequence listing 1) and an antisense DNA of 16S rRNA (sequence listing 2); a sense DNA of RRE RNA (sequence listing 3) and an antisense DNA of RRE RNA (sequence listing 4); and a sense DNA of TS RNA (sequence listing 5) and an antisense DNA of TS RNA (sequence listing 6). […]
(§2) The paromomycin bonded with tetramethylrhodamine (hereinafter referred to as […]) is used as a luminescence fluorescent probe. The luminescence anisotropy is measured by establishing a thermostat of 20° C. at the Perkin-Elmer LS-50B luminescence spectroscope. The luminescence absorptance of CRP is 510 nm and its luminescence fluorescent is observed at 550 nm. […] The luminescence was measured at an elution buffer using 140 mM NaCl, 5 mM KCl, 1 mM MgCl2, and 20 mM HEPES pH 7.5. […]
(§3) A is the luminescence anisotropy value of CRP when RNA is present,
(§4) A0 is the luminescence anisotropy value of CRP when RNA is not present,
(§5) DA is the difference of luminescence anisotropy value when RNA is not present between various RNA concentrations, […]
(§6) If the newly prepared compound is added to the solution after inducing the bonding of the said RNA and CRP, CRP is separated from RNA by a competitive bonding reaction and the compound to be measured achieves a KD value by bonding with RNA. […]
(§7) [Aminoglycoside]0 is the initial concentration of aminoglycoside to be measured, […]

[2] = target: TS RNA; experiment: Fluorescence anisotropy competition binding (CRP displacement) to TS RNA; settings: competition with CRP probe, 20° C., pH 7.5; read-out: binding force (bond constant KD) against TS RNA
Experimental: as §1, §2, §3, §4, §5, §6, §7

[3] = target: 16S rRNA; experiment: Fluorescence anisotropy competition binding (CRP displacement) to 16S rRNA; settings: competition with CRP probe, 20° C., pH 7.5; read-out: binding force (bond constant KD) against 16s rRNA
Experimental: as §1, §2, §3, §4, §5, §6, §7

Measured: Kd

Neomycin [reference compound]
> 2000 nM: all assays above
